Reference: US11890274B2 (JMM LICENSING LLC, priority 2015, dated 2024)
Entries after “also recorded” stand apart in the source; their conditions may differ.

Tests used:
[1] = cited from earlier work
[2] = tested on: Human breast adenocarcinoma cell line (MCF-7 (HTB-22)); test: 3H-thymidine uptake assay, breast cancer cell line; assay type: cell-based; conditions: for Average Cpm / Cpm 1 / Cpm 2 / Cpm 3 / dose proportionality of the effect alone, percent inhibition of 3H-uptake (FIG. 4): MCF-7; for Average Cpm / Cpm 1 / Cpm 2 / Cpm 3: 24 hours post treatment; for dose proportionality of the effect alone, percent inhibition of 3H-uptake (FIG. 4): drug alone at lower doses
Description: The cells were passaged onto 24-well plates at a concentration of 50,000 cells/well, in total medium volume of 1 mL (DMEM+10% FBS+0.01 mg/mL insulin+antibiotics). The cells were then allowed to attach and were incubated from 24 hours before treatment. Cells were then treated, in triplicate, with various concentrations of treatment articles. ^3H-thymidine (1 mCi/mL) was diluted to 1 μCi in 5 μL of medium (DMEM+10% FBS+0.01 mg/mL insulin+antibiotics) and then added to each well at 18-hr post treatment. […] Each well of cells was then lysed in 0.5 mL of 0.5N NaOH+0.5% SDS. Lysate was then transferred to scintillation tubes containing 1 mL if scintillation fluid for counting (3 min/sample).

[3] = tested on: Human kidney clear cell carcinoma cell line Caki-I (HTB-46); test: 3H-thymidine uptake assay, renal cell carcinoma; assay type: cell-based; conditions: for Average Cpm / Cpm 1 / Cpm 2 / Cpm 3: Caki-I, 24 hours post treatment; for Average cpm: pilot plating
Description: Pilot plating experiments using Human kidney clear cell carcinoma cell line Caki-I (HTB-46). […] 0.1% DMSO, the test article solvent, in media was the control.
The cells were passaged onto 24-well plates at a concentration of 30,000 cells/well, in total medium volume of 1 mL (RPMI 1640+10% FBS+antibiotics). The cells were then allowed to attach and were incubated from 24 hours before treatment. Cells were then treated, in triplicate, with various concentrations of treatment articles.
^3H-thymidine (1 mCi/mL) was diluted to 1 μCi in 5 μL of medium (RPMI 1640+10%/FBS+antibiotics) and then added to each well at either 18- or 42-hr post treatment, for the 24- and 48-hr time points respectively.
Cells were then washed three times with 1 ML of DPBS at 24- or 48-hr post treatment to remove unincorporated ^3H-thymidine. Each well of cells was then lysed in 0.5 mL of 0.5N NaOH+0.5% SDS. Lysate was then transferred to scintillation tubes containing 1 mL if scintillation fluid for counting (3 min/sample).

[4] = tested on: plaques, tangles, and cognitive defects; conditions: mice; given before the establishment of plaques and tangles in the brain; cited from earlier work

[H]/N=C(/N=C(N)N)N(C)C [Metformin, 1,1-Dimethylbiguanide]
standard dose therapeutic serum Cmax ([1]; standard dose): 1-2 microgram/mL
Average Cpm ([2]; dosage 0.05 nM): 1144 cpm
Cpm 1 ([2]; dosage 0.05 nM): 1267 cpm
Cpm 2 ([2]; dosage 0.05 nM): 1123 cpm
Cpm 3 ([2]; dosage 0.05 nM): 1041 cpm
Average Cpm ([2]; dosage 0.1 nM): 2092 cpm
Cpm 1 ([2]; dosage 0.1 nM): 2238 cpm
Cpm 2 ([2]; dosage 0.1 nM): 2595 cpm
Cpm 3 ([2]; dosage 0.1 nM): 1444 cpm
Average Cpm ([2]; dosage 0.5 nM): 1084 cpm
Cpm 1 ([2]; dosage 0.5 nM): 1283 cpm
Cpm 2 ([2]; dosage 0.5 nM): 1048 cpm
Cpm 3 ([2]; dosage 0.5 nM): 921 cpm
dose proportionality of the effect alone, percent inhibition of 3H-uptake (FIG. 4) [2]: not dose proportional; also recorded: not dose-proportional

CN(Cc1cnc2nc(N)nc(N)c2n1)c1ccc(C(=O)N[C@@H](CCC(=O)O)C(=O)O)cc1 [Methotrexate, N-[4-[[(2,4-diamino-6-pteridinyl)methyl]methylamino]benzoyl]L-glutamic acid]
Average Cpm ([3]; dosage 100 nM): 11414 cpm
Cpm 1 ([3]; dosage 100 nM): 10636 cpm
Cpm 2 ([3]; dosage 100 nM): 12192 cpm
Cpm 3 ([3]; dosage 100 nM): 4932 cpm
Average cpm ([3]; 2.5 nm, 24-hr post treatment): 30659 cpm
Average cpm ([3]; 2.5 nm, 48-hr post treatment): 4811 cpm
Average cpm ([3]; 5 nm, 24-hr post treatment): 31148 cpm
Average cpm ([3]; 5 nm, 48-hr post treatment): 16772 cpm
Average cpm ([3]; 10 nm, 24-hr post treatment): 27266 cpm
Average cpm ([3]; 10 nm, 48-hr post treatment): 20251 cpm
Average cpm ([3]; 20 nm, 24-hr post treatment): 26144 cpm
Average cpm ([3]; 20 nm, 48-hr post treatment): 11273 cpm

CO[C@H]1C[C@@H]2CC[C@@H](C)[C@@](O)(O2)C(=O)C(=O)N2CCCC[C@H]2C(=O)O[C@H]([C@H](C)C[C@@H]2CC[C@@H](O)[C@H](OC)C2)CC(=O)[C@H](C)/C=C(\C)[C@@H](O)[C@@H](OC)C(=O)[C@H](C)C[C@H](C)/C=C/C=C/C=C/1C [Rapamycin]
standard therapeutic serum trough levels ([1]; considered clinically relevant for current uses): 5 to 20 ng/mL
effect on plaques, tangles, and cognitive defects [4]: significantly reduce plaques, tangles, and cognitive defects
inhibition at 0.0005 µM ([2]; Homo sapiens, MCF7, read-out: inhibitory effect (percent inhibition of 3H-uptake), rapamycin alone at 0.5 nM): 25%
inhibition at 0.001 µM ([2]; Homo sapiens, MCF7, read-out: inhibitory effect (percent inhibition of 3H-uptake), rapamycin alone at 1.0 nM): 32%
Average Cpm ([2]; dosage 0.1 nM): 1181 cpm
Cpm 1 ([2]; dosage 0.1 nM): 1041 cpm
Cpm 2 ([2]; dosage 0.1 nM): 1516 cpm
Cpm 3 ([2]; dosage 0.1 nM): 986 cpm
Average Cpm ([2]; dosage 0.5 nM): 2543 cpm
Cpm 1 ([2]; dosage 0.5 nM): 2537 cpm
Cpm 2 ([2]; dosage 0.5 nM): 2524 cpm
Cpm 3 ([2]; dosage 0.5 nM): 2567 cpm
Average Cpm ([2]; dosage 1 nM): 2294 cpm
Cpm 1 ([2]; dosage 1 nM): 3114 cpm
Cpm 2 ([2]; dosage 1 nM): 1220 cpm
Cpm 3 ([2]; dosage 1 nM): 2548 cpm
dose proportionality of the effect alone, percent inhibition of 3H-uptake (FIG. 4) [2]: not dose proportional; also recorded: not dose-proportional
Average Cpm ([3]; dosage 1 nM): 10651 cpm
Cpm 1 ([3]; dosage 1 nM): 10730 cpm
Cpm 2 ([3]; dosage 1 nM): 9692 cpm
Cpm 3 ([3]; dosage 1 nM): 11531 cpm
Average Cpm ([3]; dosage 5 nM): 8758 cpm
Cpm 1 ([3]; dosage 5 nM): 8771 cpm
Cpm 2 ([3]; dosage 5 nM): 7473 cpm
Cpm 3 ([3]; dosage 5 nM): 10030 cpm
Average Cpm ([3]; dosage 10 nM): 9111 cpm
Cpm 1 ([3]; dosage 10 nM): 9861 cpm
Cpm 2 ([3]; dosage 10 nM): 8987 cpm
Cpm 3 ([3]; dosage 10 nM): 8486 cpm
Average cpm ([3]; 5 nm, 24-hr post treatment): 14805 cpm
Average cpm ([3]; 5 nm, 48-hr post treatment): 8584 cpm
Average cpm ([3]; 10 nm, 24-hr post treatment): 12611 cpm
Average cpm ([3]; 10 nm, 48-hr post treatment): 7463 cpm
Average cpm ([3]; 20 nm, 24-hr post treatment): 12044 cpm
Average cpm ([3]; 20 nm, 48-hr post treatment): 6349 cpm
